Our source for the ED50 values is patent US4440932A, “7β-Arylalkyl-7α-methyl-6-oxo or 6α-hydroxy-3-methoxy or 3-hydroxy-4,5α-epoxy-17-methyl or 17-cycloalkyl-methylmorphinans” (Miles Laboratories, Inc., priority 1982, dated 1984).

The structures appear in SMILES notation. Values joined by “and” are separate entries in the source; they are usually repeats but may differ in a detail not shown here. Equal values may be shown once.

In this assay the test system is mice. The assay is described as follows: acetic acid induced writhing test (analgesic effects in mice, subcutaneous). The following applies: Mus musculus, sc, acetic acid i.p. 15 min post drug, writhes counted over 20 min, read-out: ED50 (dose required to reduce the number of writhes by 50%). The format is in vivo, mice (male CD-1). On the procedure:
Analgesic effects of the test compounds were determined in mice by use of the acetic acid induced writhing test described by B. A. Whittle, Brit. J. Pharmacol., 22:246 (1964). In this test, at least 3 groups of 5 male CD-1 mice each were given subcutaneous doses of the test drug dissolved in distilled water. In all cases, 0.4 ml of a 0.5% v/v acetic acid in distilled water solution was administered intraperitoneally 15 min. post drug. The number of writhes in a 20 min. interval beginning 5 min. after the acetic acid injection were determined and compared with the number of writhes in a control group which had received only acetic acid.
Percent inhibition of writhing was calculated as: [formula]
The ED50 dose, i.e., the dose required to reduce the number of writhes by 50%, was determined graphically from a plot of % inhibition as a probit verus log dose. Confidence limits of 95% were calculated on the basis of those results falling in the range 16-84% inhibition. See Lichtfield, J. T. and Wilcoxon, F., J. Pharmacol. Exp. Ther., 96, 99-113 (1949).
On the technique in general: An intraperitoneal irritant provokes the stretching counted in writhing tests.
In general, ED50 refers to the midpoint of the dose-response relation. Consider `C[C@@]1(CCCCc2ccccc2)C[C@H]2[C@H]3Cc4ccc(O)c5c4[C@@]2(CCN3CC2CCC2)[C@@H](O5)C1=O` [DBf], for which the ED50 was 0.17 µmol/kg and 0.08 mg/kg. On to `CN1CC[C@]23c4c5ccc(O)c4O[C@H]2C(=O)[C@](C)(CCCCc2ccccc2)C[C@H]3[C@H]1C5` [DMf, 7α,17-Dimethyl-4,5α-epoxy-3-hydroxy-7β-(4-phenylbutyl)morphinan-6-one], for which the ED50 is 0.01 µmol/kg and 0.0048 mg/kg.

Consider `C[C@@]1(CCCCc2ccccc2)C[C@H]2[C@H]3Cc4ccc(O)c5c4[C@@]2(CCN3CC2CC2)[C@@H](O5)C1=O` [DPf], for which the ED50 was 0.11 µmol/kg and 0.07 mg/kg.

`COc1ccc2c3c1O[C@H]1[C@@H](O)[C@](C)(CCCCc4ccccc4)C[C@H]4[C@@H](C2)N(C)CC[C@@]341` [BMf, 7α,17-Dimethyl-4,5α-epoxy-3-methoxy-7β-(4-phenylbutyl)morphinan-6α-ol]: the 50% effective dose (ED50) is 0.049 µmol/kg and 0.023 mg/kg. Next, `C[C@@]1(CCc2ccccc2)C[C@H]2[C@H]3Cc4ccc(O)c5c4[C@@]2(CCN3CC2CCC2)[C@@H](O5)C1=O` [DBd]: 0.04 µmol/kg and 0.021 mg/kg; `COc1ccc2c3c1O[C@H]1C(=O)[C@](C)(CCCCc4ccccc4)C[C@H]4[C@@H](C2)N(CC2CC2)CC[C@]314` [CPf]: 2 µmol/kg and 1.1 mg/kg; `COc1ccc2c3c1O[C@H]1[C@@H](O)[C@](C)(CCCCc4ccccc4)C[C@H]4[C@@H](C2)N(CC2CC2)CC[C@@]341` [BPf]: 0.5 µmol/kg and 0.26 mg/kg. Next, `COc1ccc2c3c1O[C@H]1[C@@H](O)[C@](C)(CCCCc4ccccc4)C[C@H]4[C@@H](C2)N(CC2CCC2)CC[C@@]341` [BBf]: 11.3 µmol/kg and 6.1 mg/kg. To `COc1ccc2c3c1O[C@H]1[C@@H](O)[C@](C)(CCc4ccccc4)C[C@H]4[C@@H](C2)N(CC2CCC2)CC[C@@]341` [BBd] belongs 1 µmol/kg and 0.51 mg/kg.

Regarding `COc1ccc2c3c1O[C@H]1C(=O)[C@](C)(CCCCc4ccccc4)C[C@H]4[C@@H](C2)N(CC2CCC2)CC[C@]314` [CBf], the ED50 was 5.6 µmol/kg and 2.8 mg/kg. `COc1ccc2c3c1O[C@H]1C(=O)[C@](C)(CCc4ccccc4)C[C@H]4[C@@H](C2)N(CC2CCC2)CC[C@]314` [CBd]: the ED50 is 0.01 µmol/kg and 0.011 mg/kg. Next, `COc1ccc2c3c1O[C@H]1C(=O)[C@](C)(CCCCc4ccccc4)C[C@H]4[C@@H](C2)N(C)CC[C@]314` [CMf, 7α,17-Dimethyl-4,5α-epoxy-3-methoxy-7β-(4-phenylbutyl)morphinan-6-one]: 0.023 µmol/kg and 0.011 mg/kg.
